According to paper PMC7815647 (Biochemistry and Biophysics Reports, 2021):

Test system: Nit11764
Settings: 40 mM Na-K phosphate pH 7.0

## N#C/C=C/C#N [Fumaronitrile]
  Km: 8.57 ± 0.8 mM

## N#C/C=C/c1ccccc1 [Cinnamonitrile]
  Km: 1.27 ± 0.4 mM
